Assay results published in article PMC4178172, “Molecular Determinants of Agonist Selectivity in Glutamate-Gated Chloride Channels Which Likely Explain the Agonist Selectivity of the Vertebrate Glycine and GABAA-ρ Receptors” (PLoS ONE, 2014).

Legend:
GluClAc2 = biological target: T1, GluClAc2 (Aplysia californica, UniProt C7DLK0, Y161A); assay: whole-cell patch clamp, […] glutamate; assay type: cell-based
T1 construct: homomeric receptor expressed in CHO-K1 cells
T1 sequence (C7DLK0 32-429 Y161A): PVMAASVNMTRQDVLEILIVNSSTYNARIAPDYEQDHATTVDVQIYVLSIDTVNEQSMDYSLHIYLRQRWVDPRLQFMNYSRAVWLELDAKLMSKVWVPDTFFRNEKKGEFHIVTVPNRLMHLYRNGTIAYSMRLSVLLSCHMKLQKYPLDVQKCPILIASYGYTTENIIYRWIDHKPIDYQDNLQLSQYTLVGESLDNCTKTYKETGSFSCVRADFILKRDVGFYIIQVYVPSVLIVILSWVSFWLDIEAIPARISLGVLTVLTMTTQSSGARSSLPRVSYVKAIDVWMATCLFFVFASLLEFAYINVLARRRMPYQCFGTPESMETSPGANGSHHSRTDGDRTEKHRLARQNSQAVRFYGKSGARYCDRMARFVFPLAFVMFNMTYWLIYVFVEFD

GluClα2b = biological target: T2, GluClα2b (Caenorhabditis elegans, UniProt O17548, R111L); assay: whole-cell patch clamp, […] glutamate; assay type: cell-based
T2 construct: gene avr-15; homomeric receptor expressed in CHO-K1 cells
T2 sequence (O17548 21-478 R111L): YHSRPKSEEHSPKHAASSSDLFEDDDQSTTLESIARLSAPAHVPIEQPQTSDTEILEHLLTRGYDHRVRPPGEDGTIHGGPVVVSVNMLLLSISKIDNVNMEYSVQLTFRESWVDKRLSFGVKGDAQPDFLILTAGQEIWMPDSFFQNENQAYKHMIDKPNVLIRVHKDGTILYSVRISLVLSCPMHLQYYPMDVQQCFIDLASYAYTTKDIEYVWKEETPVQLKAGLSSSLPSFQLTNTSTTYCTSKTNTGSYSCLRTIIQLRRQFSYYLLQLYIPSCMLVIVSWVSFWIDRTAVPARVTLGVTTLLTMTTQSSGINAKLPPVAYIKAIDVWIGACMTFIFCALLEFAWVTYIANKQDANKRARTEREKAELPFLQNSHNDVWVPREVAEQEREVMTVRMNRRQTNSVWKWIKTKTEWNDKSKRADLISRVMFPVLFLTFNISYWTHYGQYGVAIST

Structure (SMILES): N[C@@H](CCC(=O)O)C(=O)O [glutamate]
- whole-cell patch clamp, 1 mM glutamate (GluClAc2): its mutation to an alanine failed to cause any noticeable change in the response to glutamate
- whole-cell patch clamp, 1-100 mM glutamate (GluClα2b): this mutation did not impede a robust response to glutamate at higher concentrations
